This is an account of results in US10174202B2, “Dyes with phosphinic acid, phosphinate, phosphonate and phosphonamidate substituents as auxochromic groups and methods for preparing the same” (Max-Planck-Gesellschaft zur Foerderung der Wissenschaften …, priority 2017, dated 2019).

Holding throughout (assay type): physicochemical
A short description of data set [1]: Absorption spectroscopy (UV/Vis). As for the experimental part: (§1) Absorption spectra were recorded with a Varian Cary 4000 UV-Vis double-beam spectrophotometer (Agilent Technologies, USA). For the determination of the absorption spectra, quartz cells with a 1 cm path length were used. Emission spectra and fluorescence quantum yield were obtained on a Quantaurus-QY Absolute PL quantum yield spectrometer C11347 (Hamamatsu Photonics, Japan) or on a Varian Cary Eclipse fluorescence spectrometer (Agilent Technologies, USA).

Data set [2] in a line: Fluorescence lifetime. Conditions: in acetonitrile.
Data set [3] can be described thus: Emission spectra and fluorescence quantum yield. As for the experimental part:
as §1

Where [4] appears, read: in acetonitrile, trifluoroacetate.
The mark [5] stands for this setting: in aq. PBS, pH 7.4, trifluoroacetate.

“And” between values parts separate entries of the source, which are not always exact repeats. Identical values can stand only once. Counter-ions that a name gives are not always drawn. Marks after values point to notes of the source that are not given here.

For the compound `CCN(CC)c1ccc2c(P(=O)(OC)OC)c(-c3nc4ccccc4s3)c(=O)oc2c1` [Compound 1, Dimethyl [3-(benzo[d]thiazol-2-yl)-7-(diethylamino)-2-oxo-2H-chromen-4-yl]phosphonate], in data set [1] (in acetonitrile), the Absorption max. stood at 439 nm and the “ε at absorption max.” value was determined as 24000 M⁻¹ cm⁻¹. Further, in data set [2], the fluorescence lifetime is reported as 2.55^a ns. For the same compound, in data set [3] (in acetonitrile), the Emission max. is 651 nm; the “QY (fluorescence quantum yield, Φfl)” value is listed as 0.20; the Stokes shift is given as 212^a nm.

Take `COP(=O)(OC)c1c2ccc(=[N+](C)C)cc-2oc2cc(N(C)C)ccc12.O=C([O-])C(F)(F)F` [Compound 5, 9-(Dimethoxyphosphoryl)-3,6-bis(dimethylamino)-9H-xanthenylium trifluoroacetate]: in data set [1] (in aq. PBS, pH 7.4), the “ε at absorption max.” value came to 21400 M⁻¹ cm⁻¹. In data set [3] (in aq. PBS, pH 7.4), the Emission max. came to 667 nm and the “QY (fluorescence quantum yield, Φfl)” value is 0.16.

Consider `CC(C)OP(=O)(OC(C)C)c1c2ccc(N(C)C)cc2[o+]c2cc(N(C)C)ccc12.O=C([O-])C(F)(F)F` [Compound 6, 9-(Diisopropoxyphosphoryl)-3,6-bis(dimethylamino)-9H-xanthenylium trifluoroacetate], for which the Absorption max. is reported as 617 nm in data set [1] (in acetonitrile) and 629 nm in data set [1] (in aq. PBS, pH 7.4). Besides, the “ε at absorption max.” value in data set [1] (setting [4]) was 57638 M⁻¹ cm⁻¹ and 57600 M⁻¹ cm⁻¹; in data set [1] (setting [5]), 52254 M⁻¹ cm⁻¹ and 52300 M⁻¹ cm⁻¹. The Emission max. in data set [3] (in acetonitrile) is reported as 649 nm; in data set [3] (in aq. PBS, pH 7.4) it was 668 nm. For the same compound, the “QY (fluorescence quantum yield, Φfl)” value in data set [3] (in acetonitrile) came out at 0.38; in data set [3] (in aq. PBS, pH 7.4) it was 0.12. Besides, the Stokes shift in data set [3] (in acetonitrile) amounted to 32 nm; in data set [3] (in aq. PBS, pH 7.4), 39 nm.

Take `COP(=O)(c1c2ccc(N(C)C)cc2[o+]c2cc(N(C)C)ccc12)N(C(C)C)C(C)C.O=C([O-])C(F)(F)F` (stereo not shown) [Compound 7, 9-[(Diisopropylamino)(methoxy)phosphoryl]-3,6-bis(dimethylamino)-9H-xanthenylium trifluoroacetate]: the Absorption max. in data set [1] (in acetonitrile) was determined as 616 nm; in data set [1] (in aq. PBS, pH 7.4) it was 628 nm. In addition, the “ε at absorption max.” value in data set [1] (setting [4]) is 52455 M⁻¹ cm⁻¹ and 52500 M⁻¹ cm⁻¹; in data set [1] (setting [5]) it was 46051 M⁻¹ cm⁻¹ and 46100 M⁻¹ cm⁻¹. In addition, the Emission max. in data set [3] (in acetonitrile) is listed as 649 nm; in data set [3] (in aq. PBS, pH 7.4), 664 nm. The “QY (fluorescence quantum yield, Φfl)” value in data set [3] (in acetonitrile) is on record as 0.39; in data set [3] (in aq. PBS, pH 7.4), 0.11. For the same compound, the Stokes shift in data set [3] (in acetonitrile) was found to be 33 nm; in data set [3] (in aq. PBS, pH 7.4) it was 36 nm.

Turning to `CN(C)c1ccc2c(P(=O)(c3ccccc3)c3ccccc3)c3ccc(N(C)C)cc3[o+]c2c1.O=C([O-])C(F)(F)F` [Compound 8, 3,6-Bis(dimethylamino)-9-(diphenylphosphoryl)-9H-xanthenylium trifluoroacetate], the Absorption max. in data set [1] (in acetonitrile) came to 574 nm; in data set [1] (in aq. PBS, pH 7.4), 601 nm. The Emission max. came to 600 nm in data set [3] (in acetonitrile) and 639 nm in data set [3] (in aq. PBS, pH 7.4). Further, the “QY (fluorescence quantum yield, Φfl)” value in data set [3] (in acetonitrile) worked out at 0.35; in data set [3] (in aq. PBS, pH 7.4), 0.26. Besides, the Stokes shift is on record as 26 nm in data set [3] (in acetonitrile) and 38 nm in data set [3] (in aq. PBS, pH 7.4).

On to `C=CCOC(=O)CCCOP(=O)(OC)[c+]1c2ccc(N(C)C)cc2oc2cc(N(C)C)ccc21` (stereo not shown) [Compound 12, 9-[[4-(Allyloxy)-4-oxobutoxy](methoxy)phosphoryl]-3,6-bis(dimethylamino)-9H-xanthen-9-ylium chloride], for which, in data set [1] (in acetonitrile), the Absorption max. came out at 621 nm; the “ε at absorption max.” value was 42690 M⁻¹ cm⁻¹ and 42700 M⁻¹ cm⁻¹. For the same compound, in data set [1] (in aq. PBS, pH 7.4), the Absorption max. was determined as 632 nm and the “ε at absorption max.” value came to 29540 M⁻¹ cm⁻¹. For the same compound, in data set [3] (in acetonitrile), the Emission max. amounted to 653 nm; the “QY (fluorescence quantum yield, Φfl)” value is on record as 0.32; the Stokes shift is reported as 32 nm. Also, in data set [3] (in aq. PBS, pH 7.4), the Emission max. turned out to be 669 nm; the “QY (fluorescence quantum yield, Φfl)” value was found to be 0.17; the Stokes shift amounted to 37 nm.

For `CN(C)c1ccc2c([PH](=O)[O-])c3ccc(N(C)C)cc3[o+]c2c1` [Compound 13, [3,6-Bis(dimethylamino)-9H-xanthenylium-9-yl]phosphinate], in data set [1] (in aq. PBS, pH 7.4), the Absorption max. is on record as 590 nm; the “ε at absorption max.” value was 59543 M⁻¹ cm⁻¹ and 59400 M⁻¹ cm⁻¹. Moreover, in data set [3] (in aq. PBS, pH 7.4), the Emission max. is listed as 627 nm; the “QY (fluorescence quantum yield, Φfl)” value worked out at 0.33; the Stokes shift is reported as 37^b nm.

As to `CCOP(=O)(CC(=O)[O-])c1c2ccc(N(C)C)cc2[o+]c2cc(N(C)C)ccc12` (stereo not shown) [Compound 14, 2-[[3,6-Bis(dimethylamino)-9H-xanthenylium-9-yl](ethoxy)phosphoryl]acetate], in data set [1] (in acetonitrile), the Absorption max. turned out to be 625 nm and the “ε at absorption max.” value was 22599 M⁻¹ cm⁻¹. Besides, in data set [1] (in aq. PBS, pH 7.4), the Absorption max. is 631 nm and the “ε at absorption max.” value is 47622 M⁻¹ cm⁻¹. Further, in data set [3] (in acetonitrile), the Emission max. came to 656 nm; the “QY (fluorescence quantum yield, Φfl)” value is reported as 0.32; the Stokes shift was 31 nm. In addition, in data set [3] (in aq. PBS, pH 7.4), the Emission max. is 667 nm; the “QY (fluorescence quantum yield, Φfl)” value came to 0.22; the Stokes shift worked out at 36 nm.

As for `CN(C)c1ccc2c(P(=O)([O-])CCC(=O)O)c3ccc(=[N+](C)C)cc-3oc2c1` [Compound 15, [3,6-Bis(dimethylamino)-9H-xanthenyhum-9-yl](2-carboxyethyl)phosphinate], in data set [1] (in aq. PBS, pH 7.4), the Absorption max. came out at 598 nm; the “ε at absorption max.” value was 52094 M⁻¹ cm⁻¹ and 52100 M⁻¹ cm⁻¹. In data set [3] (in aq. PBS, pH 7.4), the Emission max. amounted to 636 nm; the “QY (fluorescence quantum yield, Φfl)” value was found to be 0.29; the Stokes shift is recorded as 38^b nm.

For `COP(=O)(C1=c2cc3c4c(c2Oc2c1cc1c5c2CCCN5CCC1)CCC[N+]=4CCC3)N(C(C)C)C(C)C` (stereo not shown) [Compound 17, 9-[(Diisopropylamino)(methoxy)phosphoryl]-1H,2H,3H5H,6H,7H,11H,12H,13H,15H,16H,17H-pyrido[3,2,1-ij]quinolizino[1′,9′:6,7,8]chromeno[2,3-f]quinolinium trifluoroacetate], the Absorption max. in data set [1] (in acetonitrile) came out at 649 nm; in data set [1] (in aq. PBS, pH 7.4) it was 661 nm. Further, the “ε at absorption max.” value is 52455 M⁻¹ cm⁻¹ and 53000 M⁻¹ cm⁻¹ in data set [1] (setting [4]); 46976 M⁻¹ cm⁻¹ and 47000 M⁻¹ cm⁻¹ in data set [1] (setting [5]). Besides, the Emission max. in data set [3] (in acetonitrile) was found to be 679 nm; in data set [3] (in aq. PBS, pH 7.4), 696 nm. For the same compound, the “QY (fluorescence quantum yield, Φfl)” value in data set [3] (in acetonitrile) was 0.25; in data set [3] (in aq. PBS, pH 7.4) it was 0.11. For the same compound, the Stokes shift in data set [3] (in acetonitrile) is listed as 30 nm; in data set [3] (in aq. PBS, pH 7.4), 35 nm.

In the case of `COP(=O)([O-])C1=c2cc3c4c(c2Oc2c1cc1c5c2CCCN5CCC1)CCC[N+]=4CCC3` [Compound 18, Methyl (1H,2H,3H,5H,6H,7H,11H,12H,13H,15H,16H,17H-pyrido[3,2,1-ij]quinolizino[1′,9′:6,7,8]chromeno[2,3-f]quinolinium-9-yl)phosphonate], in data set [1] (in acetonitrile), the Absorption max. is 596 nm; the “ε at absorption max.” value was 49565 M⁻¹ cm⁻¹ and 49600 M⁻¹ cm⁻¹. In addition, in data set [1] (in aq. PBS, pH 7.4), the Absorption max. is given as 630 nm; the “ε at absorption max.” value was 52286 M⁻¹ cm⁻¹ and 52300 M⁻¹ cm⁻¹. For the same compound, in data set [3] (in acetonitrile), the Emission max. is recorded as 623 nm; the “QY (fluorescence quantum yield, Φfl)” value is given as 0.85; the Stokes shift worked out at 27 nm. Moreover, in data set [3] (in aq. PBS, pH 7.4), the Emission max. was 666 nm; the “QY (fluorescence quantum yield, Φfl)” value is given as 0.17; the Stokes shift is listed as 36 nm.

For `CCOP(=O)(C1=c2cc3c4c(c2Oc2c1cc1c5c2CCCN5CCC1)CCC[N+]=4CCC3)N(C)CCC(=O)O` (stereo not shown) [Compound 19, 9-[[(2-Carboxyethyl)(methyl)amino](ethoxy)phosphoryl]-1H,2H,3H,5H,6H,7H,11H,12H,13H,15H,16H,17H-pyrido[3,2,1-ij]quinolizino[1′,9′:6,7,8]chromeno[2,3-f]quinolinium trifluoroacetate], in data set [1] (in acetonitrile), the Absorption max. worked out at 648 nm and the “ε at absorption max.” value worked out at 29373 M⁻¹ cm⁻¹. Moreover, in data set [1] (in aq. PBS, pH 7.4), the Absorption max. is reported as 659 nm and the “ε at absorption max.” value came to 37214 M⁻¹ cm⁻¹. Further, in data set [3] (in acetonitrile), the Emission max. is listed as 682 nm; the “QY (fluorescence quantum yield, Φfl)” value turned out to be 0.19; the Stokes shift was 34 nm. For the same compound, in data set [3] (in aq. PBS, pH 7.4), the Emission max. was 705 nm; the “QY (fluorescence quantum yield, Φfl)” value was found to be 0.11; the Stokes shift is 46 nm.

Regarding `COP(=O)(OC)c1c2ccc(N(C)C)cc2[n+](C)c2cc(N(C)C)ccc12` [Compound 22, 9-(Dimethoxyphosphoryl)-3,6-bis(dimethylamino)-10-methylacridinium trifluoroacetate], in data set [1] (in methanol), the Absorption max. came out at 560 nm and the “ε at absorption max.” value stood at 43000 M⁻¹ cm⁻¹. In data set [3] (in methanol), the Emission max. was 620 nm; the “QY (fluorescence quantum yield, Φfl)” value is 0.95; the Stokes shift is recorded as 60^e nm.

Take `CN(C)c1ccc2c(c1)-c1cccc3c(N(C)C)ccc(c13)C2.[O-][Cl+3]([O-])([O-])O` [Compound 28d]: in data set [1] (in methanol), the Absorption max. came to 646 nm and the “ε at absorption max.” value worked out at 23000 M⁻¹ cm⁻¹. Moreover, in data set [3] (in methanol), the Emission max. stood at 673 nm and the “QY (fluorescence quantum yield, Φfl)” value stood at 0.25.

As for `CC1=CC(C)=[N+]2C1=C(P(=O)(OC(C)C)OC(C)C)c1c(C)cc(C)n1[B-]2(F)F` [Compound 29, 10-(Diisopropoxyphosphoryl)-5,5-difluoro-1,3,7,9-tetramethyl-5H-dipyrrolo[1,2-c:2′,1′-f][1,3,2]diazaborinin-4-ium-5-uide], in data set [1] (in acetonitrile), the Absorption max. is 574 nm and the “ε at absorption max.” value amounted to 33000 M⁻¹ cm⁻¹. For the same compound, the “fluorescence emission (in words)” value in data set [3] is “no emission (quencher)”. In data set [3] (in acetonitrile), the Emission max. turned out to be 647 nm; the “QY (fluorescence quantum yield, Φfl)” value is on record as under 0.002; the Stokes shift is recorded as 73^a nm.
